In the NIST ThermoML archive (doi:10.1021/je034144f):

Details: Liquid, Ebulliometric method (Recirculating still)

CC#N [acetonitrile]
Details	vapor or sublimation pressure [kPa]
277.92 K	4.323
278.62 K	4.49
281.57 K	5.247
285.38 K	6.385
287.67 K	7.165
290.65 K	8.296
292.75 K	9.182
295.78 K	10.6
300.82 K	13.37
303.81 K	15.27
309.64 K	19.64
315.43 K	24.97
321.12 K	31.31
325.02 K	36.39
331.27 K	45.91
336.41 K	55.17
341.18 K	65.07
345.57 K	75.44
349.33 K	85.31
352.88 K	95.59
354.55 K	100.75
354.67 K	101.12
357.56 K	110.61
360.94 K	122.63
361.61 K	125.13
368.97 K	155.33
371.74 K	168.12
373.17 K	175.04
378.81 K	204.59
384.11 K	235.79
394.29 K	306.28
405.24 K	399.5
415.21 K	502.67
423.68 K	605.6
431.12 K	708.99
437.3 K	804.86
443.5 K	910.82
449.6 K	1025.5
455.74 K	1152
461.87 K	1290.2
468.37 K	1450.3
474.05 K	1602.6
479.15 K	1749.8
484.77 K	1923.9
490.37 K	2110.8
495.75 K	2303.5
501.48 K	2523.7
506.92 K	2748
512.61 K	2999.2
518.01 K	3254.1
523.15 K	3512.9
527.79 K	3760.4
532.08 K	4001.5
535.03 K	4174.6
